The subject of this test is ASPS-1 complex tumor spheroids, viability. Briefly: Anticancer human tumor ASPS-1 cell line growth inhibition.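 As to all read-outs here: spheroids exposed to agents for 7 days after 3 days of growth.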 The note with it: for viability, T/C: stronger effect = lower value. An excerpt: Multicellular complex tumor spheroid response to DNA repair inhibitors in combination with DNA-damaging drugs
This study explores the anticancer activities of DNA-damaging drugs and inhibitors of DNA damage repair, both as single agents and in combinations. Complex tumor spheroids comprised of malignant cells, endothelial cells and mesenchymal stem cells served as an in vitro model for human solid tumors. This model system incorporates physiologically relevant features and patient-derived or established malignant cell lines with clinically relevant genetic alterations from many tumor types. Twenty-six patient-derived or established malignant cell lines were evaluated representing sarcoma, melanoma, small cell lung cancer (SCLC), non-small cell lung cancer (NSCLC), as well as bladder, ovarian and pancreatic cancers. The concentration ranges selected for each drug and investigational agent were based upon clinically achievable concentrations if the clinical Cmax of the agent was known.
Compounds. The drugs and compounds olaparib (NSC753686), talazoparib (NSC767125), berzosertib (NSC777718), elimusertib (NSC800525), nedisertib (NSC802822), VX-984 (NSC792969), AZD-1390 (NSC803789), temozolomide (NSC362856), topotecan (NSC609699), trabectedin (NSC813783), staurosporine (NSC755774), and gemcitabine (NSC613327) were obtained from the National Cancer Institute (NCI) Developmental Therapeutics Program Chemical Repository. The FDA-approved anticancer drug set is available from the Developmental Therapeutics Program at https://dtp.cancer.gov/organization/dscb/obtaining/available_plates.htm. […] The stock solutions were prepared in dimethyl sulfoxide (DMSO, Sigma-Aldrich, St. Louis, MO, cat. D2650) at 400-fold the tested concentration and stored at -70 degrees C. Prior to their use, the stock solutions were diluted in fresh medium and the final DMSO concentration in the assay was 0.25% (v/v). All drugs and investigational agents were tested over a range starting from a high concentration at or near the clinical Cmax and decreasing in half-log increments. If the clinical Cmax for an agent had not been determined, the highest concentration tested was 10 microM.
Cell Lines. The patient-derived cancer cell (PDC) lines: 156681-154-R-J1-PDC, 283228-195-R-J1-PDC, 287954-098-R-J1-PDC, 292921-168-R-J2-PDC, 349418-098-R-PDC, 425362-245-T-J1-PDC, 556581-035-R-J1-PDC, and BL0293-F563-PDC were received from the NCI Patient-Derived Models Repository (PDMR, https://pdmr.cancer.gov). The established cell lines HS-SY-2 (RRID:CVCL_8719), MPNST, and SYO-1 (RRID:CVCL_7146) were obtained from the Sloan Kettering Institute. The alveolar soft parts sarcoma cell line ASPS-1 (RRID:CVCL_S738) was established at the NCI and grown from internal seed stocks. The following established cell lines were purchased from the American Type Culture Collection (ATCC, Manassas, VA): G-401 (ATCC, cat. CRL-1441, RRID:CVCL_0270), SW982 (ATCC, cat. HTB-93, RRID:CVCL_1734), VA-ES-BJ (ATCC, cat. CRL-2138, RRID:CVCL_1785), NCI-H719 (ATCC, cat. CRL-5837, RRID:CVCL_1582), NCI-H196 (ATCC, cat. CRL-5823, RRID:CVCL_1509), NCI-H841 (ATCC, cat. CRL-5845, RRID:CVCL_1595), NCI-H1618 (ATCC, cat. CRL-5879, RRID:CVCL_1480), NCI-H1876 (ATCC, cat. CRL-5902, RRID:CVCL_1503), DMS 114 (ATCC, cat. CRL-2066; RRID:CVCL_1174), NCI-H211 (ATCC, cat. CRL-5824; RRID:CVCL_1529), and SW 1271 (ATCC, cat. CRL-2177, RRID:CVCL_1716). The small cell lung cancer cell line COR-L88 was purchased from Sigma-Aldrich (cat. 92031917-1VL, RRID:CVCL_1141). The non-small cell lung cancer cell lines NCI-H226 (RRID:CVCL_1544) and NCI-H322M (RRID:CVCL_1557) were established at the NCI and grown from internal seed stocks. Pooled donor human umbilical vein endothelial cells (HUVEC, Lonza, cat. CC-2519) and human mesenchymal stem cells (hMSC, Lonza, cat. PT-2501) were purchased from Lonza (Walkersville, MD).
Cell Culture. All cells were maintained in an incubator at 37 degrees C and 5% CO2 with 95% humidity. […]

[1] abbreviates: compound alone, run of 11/07/2019.
Where [2] appears, read: compound alone, run of 12/16/2019.

Molecules are shown by their SMILES. pIC50: −log10 of the molar value. Several values for one entry are separate records, joined by “and”; a condition that tells them apart may be missing. Identical values can stand only once. Activity calls are given as the source filed them. The calls were made as follows: active = viability on the fitted dose curve at most 10% of control; inactive = the rest. Where only a bound is given, the exact number is not on record here.

In general, viability, T/C refers to the result in the treated group divided by that in the control group, in per cent. By pIC50 is commonly meant the IC50 on a negative log10 scale, so that one unit is a factor of ten. In the case of `CC(C)n1c(=O)n(C)c2cnc3cc(F)c(-c4ccc(OCCCN5CCCCC5)nc4)cc3c21`, the viability, T/C is 95.5% and 110% and 106% (compound 0.0316 µM); 108% (2×) and 107% (compound 0.1 µM); 103% and 105% and 101% (compound 0.316 µM); 95.2% and 106% and 100% (compound 1 µM); 93% and 98.2% and 95.5% (compound 3.16 µM); 63.6% and 56.2% and 38.7% (compound 10 µM). Moreover, the pIC50 (curve of compound) was < 5.00 and 5.10.
With `CC1COCCN1c1cc(-c2ccnn2C)c2ccnc(-c3ccn[nH]3)c2n1` (configuration not stated), the viability, T/C by setting is: (compound 0.0316 µM) 85.3% and 92.7% and 83.6%; (compound 0.1 µM) 60.3% and 70.7% and 69.8%; (compound 0.316 µM) 43.5% and 50.8% and 46.5%; (compound 1 µM) 37.7% and 46% and 48.2%; (compound 3.16 µM) 42.6% and 45.1% and 48%; (compound 10 µM) 39.6% and 46.7% and 44.7%. In addition, the pIC50 (curve of compound) is 6.70 and 6.42 and 6.57.
In the case of `CC[C@@]1(O)C(=O)OCc2c1cc1n(c2=O)Cc2cc3c(CN(C)C)c(O)ccc3nc2-1`, the viability, T/C is 101% [middle of 10 runs] (compound 0.003 µM), 103% [middle of 10 runs] (compound 0.00949 µM), 96.3% [middle of 10 runs] (compound 0.03 µM) and 56.3% [middle of 10 runs] (compound 0.0949 µM). Also, the pIC50 runs as follows: under setting [1], 6.65 and 6.80 and < 6.52; under setting [2], below 6.52.
As for `CNCc1ccc(-c2cc(-c3nc(-c4ccc(S(=O)(=O)C(C)C)cc4)cnc3N)on2)cc1`, the viability, T/C by setting is: (compound 0.00949 µM) 107% and 103% and 105%; (compound 0.03 µM) 102% and 113% and 112%; (compound 0.0949 µM) 97.4% and 108% and 96.5%; (compound 0.3 µM) 58.1% and 74.3% and 76.5%; (compound 0.949 µM) 40.4% and 38.1% and 45.4%; (compound 3 µM) 9.11% and 6.66% and 18%. Moreover, the pIC50 (curve of compound) was 6.26 and 6.19 and 6.11.
Take `COc1cc(C)[nH]c(=O)c1CN1CCc2c(Cl)cc(C(OC)C3COC3)c(Cl)c2C1=O` (configuration not stated): the viability, T/C runs as follows: (compound 0.0316 µM) 105% and 103% and 99%; (compound 0.1 µM) 108% and 106% and 105%; (compound 0.316 µM) 107% and 102% and 100%; (compound 1 µM) 106% and 97.9% and 96.5%; (compound 3.16 µM) 104% and 102% and 98%; (compound 10 µM) 99.3% and 104% and 97.8%. The pIC50 (curve of compound) was below 5.00.
A word on the IC50: it is the point on the concentration scale where inhibition reaches its midpoint. For `COc1cc2c(cc1O)CCNC21CSC2c3c(OC(C)=O)c(C)c4c(c3C(COC1=O)N1C(O)C3Cc5cc(C)c(OC)c(O)c5C(C21)N3C)OCO4` (configuration not stated), the viability, T/C was 103% [middle of 10 runs] (compound 30 pM); 103% [middle of 10 runs] (compound 94.9 pM); 92.7% [middle of 10 runs] (compound 0.0003 µM); 71.9% [middle of 10 runs] (compound 0.000949 µM); 23% [middle of 10 runs] (compound 0.003 µM). The IC50 under setting [2] is 1.63 nM [middle of 10 runs].
With `COc1ccc([C@@H](O)c2cc(-c3ncnc4cc(N5CCOCC5)ccc34)c(F)cc2Cl)nn1`, the viability, T/C (compound 0.0316 µM) is 108% and 103% (2×); the viability, T/C (compound 0.1 µM) is 95.8% and 109% and 111%; the viability, T/C (compound 0.316 µM) is 103% and 102% and 94.3%; the viability, T/C (compound 1 µM) is 90.4%; the viability, T/C (compound 3.16 µM) was 77.3% and 89.6% and 84.7%; the viability, T/C (compound 10 µM) is 49.6% and 58.1% and 50.4%. In addition, the result (compound 1 µM) was inactive. Also, the pIC50 (curve of compound) was 5.00 and < 5.00.
For `Cc1cc(C)c(CNC(=O)c2cc(-c3ccc(CN4CCOCC4)cc3)cc3c2cnn3C2CCCC2)c(=O)[nH]1`, the viability, T/C is 103% and 100% and 101% (compound 0.0316 µM); 103% (2×) and 102% (compound 0.1 µM); 103% and 92.5% and 99.4% (compound 0.316 µM); 105% and 93.1% and 101% (compound 1 µM); 96.7% and 94.2% and 93.3% (compound 3.16 µM); 79.3% and 80.4% and 80.8% (compound 10 µM). For the same compound, the pIC50 (curve of compound) is below 5.00.
With `Cc1sc2c(c1C)C(c1ccc(Cl)cc1)=NC(CC(=O)Nc1ccc(O)cc1)c1nnc(C)n1-2` (configuration not stated), the viability, T/C (compound 0.00949 µM) is 102% and 110% and 107%; the viability, T/C (compound 0.03 µM) was 103% and 111% and 108%; the viability, T/C (compound 0.0949 µM) is 103% and 111% and 109%; the viability, T/C (compound 0.3 µM) was 108% and 105% and 100%; the viability, T/C (compound 0.949 µM) was 97.8% and 101% and 94.3%; the viability, T/C (compound 3 µM) was 90.6% and 87.9% and 83.7%. In addition, the pIC50 (curve of compound) is below 5.52.
For `Cn1ncnc1[C@H]1c2n[nH]c(=O)c3cc(F)cc(c23)N[C@@H]1c1ccc(F)cc1`, for the setting “compound 0.00949 µM”, the result was inactive. The viability, T/C by setting is: (compound 0.00949 µM) 96.5% and 101%; (compound 0.03 µM) 105% (2×) and 98.6%; (compound 0.0949 µM) 102% (2×) and 96.3%; (compound 0.3 µM) 102% and 95.5% and 98.4%; (compound 0.949 µM) 101% and 97.7% and 91.2%; (compound 3 µM) 88.4% and 86% and 72.1%. Besides, the pIC50 (curve of compound) was below 5.52.
As for `Cn1nnc2c(C(N)=O)ncn2c1=O`, the viability, T/C (compound 1 µM) was 98.1% [middle of 10 runs]; the viability, T/C (compound 3.16 µM) was 103% [middle of 10 runs]; the viability, T/C (compound 10 µM) was 92% [middle of 10 runs]; the viability, T/C (compound 31.6 µM) was 81% [middle of 10 runs]; the viability, T/C (compound 100 µM) is 70.1% [middle of 10 runs]. Also, under setting [1], the pIC50 was below 4.00.
Regarding `O=C(c1cc(Cc2n[nH]c(=O)c3ccccc23)ccc1F)N1CCN(C(=O)C2CC2)CC1`, the viability, T/C is 97.9% and 107% and 106% (compound 0.0949 µM); 95% and 115% and 111% (compound 0.3 µM); 95.6% and 107% and 108% (compound 0.949 µM); 101% and 108% and 102% (compound 3 µM); 101% and 111% and 103% (compound 9.49 µM); 89.2% and 97.1% and 60.3% (compound 30 µM). Also, the pIC50 (curve of compound) was below 4.52.
Turning to `[2H]c1nc(C)nc([2H])c1-c1cc(NC[C@@H](C)c2cccc3c(C(=O)NC)ccnc23)ncn1`, the viability, T/C is 107% and 101% and 102% (compound 0.0316 µM); 108% and 104% (compound 0.1 µM); 108% and 104% (compound 0.316 µM); 106% and 113% and 95.1% (compound 1 µM); 103% and 107% and 100% (compound 3.16 µM); 97.9% and 101% and 95.2% (compound 10 µM). The outcome (compound 0.1 µM) was inactive and the result (compound 0.316 µM) was inactive. Also, the pIC50 (curve of compound) is below 5.00.

The values above are taken from PubChem BioAssay AID1845200 (Molecular Pharmacology Branch, DTP, NCI, 2023).
